Measured values published in patent US7060277B2 (priority 1996, dated 2006).
Values joined by “and” are separate entries in the source; they are usually repeats but may differ in a detail not shown here. Equal entries are not always repeated.

Test system: lethal dose of SEB in D-galactosamine-treated mouse model
Set-up: species or system BALB/c mice
Conditions: in vivo

Substance: lcT N K K K V T A Q E L D [pSEBLC(150–161)]
- Percent Survival: 29% and 22%
